Results from US11427558B1, “Indazoles and azaindazoles as LRRK2 inhibitors” (ESCAPE Bio, Inc., priority 2019, dated 2022).
pIC50: −log10 of the molar value.

Legend:
[1] = molecular target: Recombinant wild type LRRK2 protein (Homo sapiens (Human), UniProt Q5S007); assay: LRRK2 kinase activity, LanthaScreen TR-FRET assay (wild type); type: biochemical; conditions: LRRKtide 400 nM, 25 μM ATP, 60 min; read-out: LRRK2 WT IC50
How it was run: (§1)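 Recombinant human wild-type or G2019S LRRK2 phosphorylated fluorescein-labelled LRRKtide (ERM-based) with ATP and serially diluted compound for 60 min at room temperature.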

[2] = molecular target: Recombinant G2019S-LRRK2 protein (Homo sapiens (Human), UniProt Q5S007, G2019S); assay: LRRK2 kinase activity, LanthaScreen TR-FRET assay (G2019S); type: biochemical; conditions: LRRKtide 400 nM, 25 μM ATP, 60 min
Sequence of Recombinant G2019S-LRRK2 protein (Q5S007 whole entry G2019S): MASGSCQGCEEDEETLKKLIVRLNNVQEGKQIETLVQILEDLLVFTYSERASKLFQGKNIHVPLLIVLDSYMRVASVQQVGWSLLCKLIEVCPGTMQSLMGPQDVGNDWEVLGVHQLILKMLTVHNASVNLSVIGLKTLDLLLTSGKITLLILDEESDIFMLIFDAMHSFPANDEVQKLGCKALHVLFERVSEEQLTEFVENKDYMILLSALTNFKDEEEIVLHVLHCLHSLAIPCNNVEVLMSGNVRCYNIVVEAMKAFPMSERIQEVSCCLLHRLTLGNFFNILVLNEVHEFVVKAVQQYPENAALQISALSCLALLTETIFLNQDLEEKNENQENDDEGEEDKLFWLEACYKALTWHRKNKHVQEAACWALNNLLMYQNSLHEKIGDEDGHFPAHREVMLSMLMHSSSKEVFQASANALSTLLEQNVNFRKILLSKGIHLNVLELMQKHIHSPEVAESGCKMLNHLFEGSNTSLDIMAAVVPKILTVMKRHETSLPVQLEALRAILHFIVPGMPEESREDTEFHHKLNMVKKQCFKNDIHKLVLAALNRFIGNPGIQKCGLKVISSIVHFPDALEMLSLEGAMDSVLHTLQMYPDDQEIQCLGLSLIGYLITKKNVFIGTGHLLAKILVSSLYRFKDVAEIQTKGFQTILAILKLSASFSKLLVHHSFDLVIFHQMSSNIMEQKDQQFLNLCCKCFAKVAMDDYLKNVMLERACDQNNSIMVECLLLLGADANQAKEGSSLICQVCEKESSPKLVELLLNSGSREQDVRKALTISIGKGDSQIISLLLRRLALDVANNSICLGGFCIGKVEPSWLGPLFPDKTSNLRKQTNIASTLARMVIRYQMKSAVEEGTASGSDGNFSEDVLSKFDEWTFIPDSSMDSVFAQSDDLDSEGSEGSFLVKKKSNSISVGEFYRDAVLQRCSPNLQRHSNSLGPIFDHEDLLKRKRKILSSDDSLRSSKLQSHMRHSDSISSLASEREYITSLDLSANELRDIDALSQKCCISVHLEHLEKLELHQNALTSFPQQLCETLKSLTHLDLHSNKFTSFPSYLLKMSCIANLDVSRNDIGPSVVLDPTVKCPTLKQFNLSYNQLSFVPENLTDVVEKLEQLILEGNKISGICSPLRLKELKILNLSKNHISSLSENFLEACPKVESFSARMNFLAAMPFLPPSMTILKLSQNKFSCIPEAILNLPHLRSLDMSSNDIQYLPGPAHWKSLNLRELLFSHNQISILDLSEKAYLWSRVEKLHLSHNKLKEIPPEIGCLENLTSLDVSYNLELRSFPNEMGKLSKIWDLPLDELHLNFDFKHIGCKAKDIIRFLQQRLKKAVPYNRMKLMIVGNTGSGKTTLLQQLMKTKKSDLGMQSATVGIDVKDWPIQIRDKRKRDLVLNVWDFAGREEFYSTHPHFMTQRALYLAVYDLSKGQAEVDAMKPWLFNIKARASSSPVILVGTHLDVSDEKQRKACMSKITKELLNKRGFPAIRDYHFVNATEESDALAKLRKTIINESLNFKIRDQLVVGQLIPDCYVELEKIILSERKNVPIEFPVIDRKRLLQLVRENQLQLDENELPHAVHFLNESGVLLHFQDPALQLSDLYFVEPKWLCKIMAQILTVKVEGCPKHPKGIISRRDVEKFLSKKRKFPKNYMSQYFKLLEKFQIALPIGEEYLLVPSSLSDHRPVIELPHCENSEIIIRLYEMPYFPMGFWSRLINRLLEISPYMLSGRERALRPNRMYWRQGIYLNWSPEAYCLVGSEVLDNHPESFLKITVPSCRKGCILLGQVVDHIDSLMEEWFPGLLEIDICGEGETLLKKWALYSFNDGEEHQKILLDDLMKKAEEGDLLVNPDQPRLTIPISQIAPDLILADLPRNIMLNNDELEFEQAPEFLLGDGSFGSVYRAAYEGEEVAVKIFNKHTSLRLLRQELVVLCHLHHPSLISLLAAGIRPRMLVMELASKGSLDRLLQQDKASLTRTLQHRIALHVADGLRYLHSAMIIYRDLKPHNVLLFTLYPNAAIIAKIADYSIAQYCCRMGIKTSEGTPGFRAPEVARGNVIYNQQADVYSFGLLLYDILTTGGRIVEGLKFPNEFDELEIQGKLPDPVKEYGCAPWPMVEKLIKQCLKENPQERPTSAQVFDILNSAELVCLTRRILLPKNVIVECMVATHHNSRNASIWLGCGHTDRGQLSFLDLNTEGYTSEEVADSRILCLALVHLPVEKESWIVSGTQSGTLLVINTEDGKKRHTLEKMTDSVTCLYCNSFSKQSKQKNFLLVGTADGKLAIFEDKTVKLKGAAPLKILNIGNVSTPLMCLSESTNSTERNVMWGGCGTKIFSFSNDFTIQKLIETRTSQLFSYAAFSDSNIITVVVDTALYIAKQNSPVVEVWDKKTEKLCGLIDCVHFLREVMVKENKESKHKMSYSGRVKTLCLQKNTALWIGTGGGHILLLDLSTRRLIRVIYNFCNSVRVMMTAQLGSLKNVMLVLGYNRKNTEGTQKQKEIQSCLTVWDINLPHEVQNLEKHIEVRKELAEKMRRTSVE
How it was run: as §1

Sequence of Recombinant wild type LRRK2 protein (Q5S007 whole entry): as the sequence (Q5S007 whole entry G2019S) above, with S2019G counted along it

| Molecule | pIC50 [1] | pIC50 [2] |
| --- | --- | --- |
| COc1cc(C#N)ccc1C(=O)Nc1ccc2[nH]nc(-c3cnn(C(F)F)c3)c2c1 [Example 189, 4-Cyano-N-(3-(1-(difluoromethyl)-1H-pyrazol-4-yl)-1H-indazol-5-yl)-2-methoxybenzamide] | > 7.00 | > 7.00 |
| Cc1c(C(=O)Nc2ccc3[nH]nc(-c4cnco4)c3c2)ncc(C#N)c1C(F)(F)F [Example 289, 5-Cyano-3-methyl-N-(3-(oxazol-5-yl)-1H-indazol-5-yl)-4-(trifluoromethyl)picolinamide] | > 7.00 | > 7.00 |
| Cc1c(C#N)cnc(C(=O)Nc2ccc3[nH]nc(F)c3c2)c1C [Example 315, 5-Cyano-N-(3-fluoro-1H-indazol-5-yl)-3,4-dimethylpicolinamide] | 5.00 to 6.00 | > 7.00 |
| Cc1c(C(=O)Nc2ccc3[nH]nc(S(C)(=O)=O)c3c2)nc(Cl)c(C#N)c1C [Example 296, 6-Chloro-5-cyano-3,4-dimethyl-N-(3-(methylsulfonyl)-1H-indazol-5-yl)picolinamide] | 6.00 to 7.00 | > 7.00 |
| Cc1c(C(=O)Nc2ccc3[nH]nc(C4CC4)c3c2)nc(C(F)(F)F)c(C#N)c1C [Example 328, 5-Cyano-N-(3-cyclopropyl-1H-indazol-5-yl)-3,4-dimethyl-6-(trifluoromethyl)picolinamide] | > 7.00 | > 7.00 |
| Cc1c(C#N)cnc(C(=O)Nc2ccc3[nH]nc(C=C4COC4)c3c2)c1C [Example 263, 5-Cyano-3,4-dimethyl-N-(3-(oxetan-3-ylidenemethyl)-1H-indazol-5-yl)picolinamide] | 5.00 to 6.00 | 6.00 to 7.00 |
| Cc1nc(C(=O)Nc2ccc3[nH]nc(C)c3c2)c(C)c(C)c1C#N [Example 325, 5-Cyano-3,4,6-trimethyl-N-(3-methyl-1H-indazol-5-yl)picolinamide] | 5.00 to 6.00 | > 7.00 |
| Cc1c(C(=O)Nc2ccc3[nH]nc(C(F)(F)F)c3c2)nc(Cl)c(C#N)c1C [Example 293, 6-Chloro-5-cyano-3,4-dimethyl-N-(3-(trifluoromethyl)-1H-indazol-5-yl)picolinamide] | > 7.00 | > 7.00 |
| Cc1c(C(=O)Nc2ccc3[nH]nc(-c4cnoc4)c3c2)nc(Cl)c(C#N)c1C [Example 216, 6-Chloro-5-cyano-N-(3-(isoxazol-4-yl)-1H-indazol-5-yl)-3,4-dimethylpicolinamide] | > 7.00 | > 7.00 |
| N#Cc1cnc(C(=O)Nc2ccc3[nH]nc(-c4cnco4)c3c2)c2c1CCC2 [Example 206, 4-Cyano-N-(3-(oxazol-5-yl)-1H-indazol-5-yl)-6,7-dihydro-5H-cyclopenta[c]pyridine-1-carboxamide] | 5.00 to 6.00 | > 7.00 |
| Cc1cc(-c2n[nH]c3ccc(NC(=O)c4ncc(C#N)cc4C)cc23)on1 [Example 235, 5-Cyano-3-methyl-N-(3-(3-methylisoxazol-5-yl)-1H-indazol-5-yl)picolinamide] | > 7.00 | > 7.00 |
| COc1n[nH]c2ccc(NC(=O)c3ncc(C#N)c(C(F)(F)F)c3C)cc12 [Example 285, 5-Cyano-N-(3-methoxy-1H-indazol-5-yl)-3-methyl-4-(trifluoromethyl)picolinamide] | 5.00 to 6.00 | > 7.00 |
| COc1ccccc1-c1n[nH]c2ccc(NC(=O)c3ncc(C#N)cc3C)cc12 [Example 99, 5-Cyano-N-(3-(2-methoxyphenyl)-1H-indazol-5-yl)-3-methylpicolinamide] | 5.00 to 6.00 | 6.00 to 7.00 |
| Cc1cccc(-c2n[nH]c3ccc(NC(=O)c4ncc(C#N)c(C)c4C)cc23)n1 [Example 182, 5-Cyano-3,4-dimethyl-N-(3-(6-methylpyridin-2-yl)-1H-indazol-5-yl)picolinamide] | 6.00 to 7.00 | > 7.00 |
| COc1cc(C#N)cc(C)c1C(=O)Nc1ccc2[nH]nc(-c3cnn(C(F)F)c3)c2c1 [Example 201, 4-Cyano-N-(3-(1-(difluoromethyl)-1H-pyrazol-4-yl)-1H-indazol-5-yl)-2-methoxy-6-methylbenzamide] | > 7.00 | > 7.00 |
| Cc1cc(C#N)cnc1C(=O)Nc1ccc2[nH]nc(-c3cscn3)c2c1 [Example 156, 5-Cyano-3-methyl-N-(3-(thiazol-4-yl)-1H-indazol-5-yl)picolinamide] | 6.00 to 7.00 | 6.00 to 7.00 |

| Molecule | pIC50 [1] | pIC50 [2] |
| --- | --- | --- |
| Cc1cc(-c2n[nH]c3ccc(NC(=O)c4ncc(C#N)c(C)c4C)cc23)cc(C)n1 [Example 191, 5-Cyano-N-(3-(2,6-dimethylpyridin-4-yl)-1H-indazol-5-yl)-3,4-dimethylpicolinamide] | > 7.00 | > 7.00 |
| N#Cc1cnc(C(=O)Nc2ccc3[nH]nc(-c4cnco4)c3c2)c(Cl)c1 [Example 318, 3-Chloro-5-cyano-N-(3-(oxazol-5-yl)-1H-indazol-5-yl)picolinamide] | > 7.00 | > 7.00 |
| N#Cc1ccc(F)c(C(=O)Nc2ccc3[nH]nc(-c4ccoc4)c3c2)c1F [Example 120, 3-Cyano-2,6-difluoro-N-(3-(furan-3-yl)-1H-indazol-5-yl)benzamide] | > 7.00 | > 7.00 |
| C=C(C)c1cc(C#N)cnc1C(=O)Nc1ccc2[nH]nc(-c3cnco3)c2c1 [Example 250, 5-Cyano-N-(3-(oxazol-5-yl)-1H-indazol-5-yl)-3-(prop-1-en-2-yl)picolinamide] | > 7.00 | > 7.00 |
| CC(C)=Cc1n[nH]c2ccc(NC(=O)c3ncc(C#N)c(C)c3C)cc12 [Example 243, 5-Cyano-3,4-dimethyl-N-(3-(2-methylprop-1-en-1-yl)-1H-indazol-5-yl)picolinamide] | 6.00 to 7.00 | > 7.00 |
| Cc1nc(C(=O)Nc2ccc3[nH]nc(-c4cncs4)c3c2)c(C)c(C)c1C#N [Example 222, 5-Cyano-3,4,6-trimethyl-N-(3-(thiazol-5-yl)-1H-indazol-5-yl)picolinamide] | > 7.00 | > 7.00 |
| Cc1c(C(=O)Nc2ccc3[nH]nc(-c4ccnc(N5CCOCC5)c4)c3c2)nc(Cl)c(C#N)c1C [Example 278, 6-Chloro-5-cyano-3,4-dimethyl-N-(3-(2-morpholinopyridin-4-yl)-1H-indazol-5-yl)picolinamide] | > 7.00 | > 7.00 |
| N#Cc1cnc(C(=O)Nc2ccc3[nH]nc(-c4cnoc4)c3c2)c2c1CCC2 [Example 218, 4-cyano-N-(3-(isoxazol-4-yl)-1H-indazol-5-yl)-6,7-dihydro-5H-cyclopenta[c]pyridine-1-carboxamide] | 5.00 to 6.00 | > 7.00 |
| Cc1c(C#N)cn(C)c1C(=O)Nc1ccc2[nH]nc(-c3cnoc3)c2c1 [Example 246, 4-Cyano-N-(3-(isoxazol-4-yl)-1H-indazol-5-yl)-1,3-dimethyl-1H-pyrrole-2-carboxamide] | > 7.00 | > 7.00 |
| CCc1n[nH]c2ccc(NC(=O)c3nc(Cl)c(C#N)c(C)c3C)cc12 [Example 271, 6-Chloro-5-cyano-N-(3-ethyl-1H-indazol-5-yl)-3,4-dimethylpicolinamide] | > 7.00 | > 7.00 |
| Cc1cc(C#N)cnc1C(=O)Nc1ccc2[nH]nc(-c3cccc(C4CC4)c3)c2c1 [Example 62, 5-cyano-N-(3-(3-cyclopropylphenyl)-1H-indazol-5-yl)-3-methylpicolinamide] | 6.00 to 7.00 | > 7.00 |
| 2-Chloro-3-cyano-N-(3-(1-(difluoromethyl)-1H-pyrazol-3-yl)-1H-indazol-5-yl)benzamide [Example 166] | > 7.00 | > 7.00 |
| Cc1c(C#N)cnc(C(=O)Nc2ccc3[nH]nc(C4CC4(C)C)c3c2)c1C (stereo not shown) [Example 257, 5-Cyano-N-(3-(2,2-dimethylcyclopropyl)-1H-indazol-5-yl)-3,4-dimethylpicolinamide] | 5.00 to 6.00 | 5.00 to 6.00 |
| Cc1cc(C#N)cnc1C(=O)Nc1ccc2[nH]nc(-c3ccnc(N4C[C@H](C)O[C@@H](C)C4)c3)c2c1 [Example 115, 5-Cyano-N-(3-(2-((2S,6S)-2,6-dimethylmorpholino)pyridin-4-yl)-1H-indazol-5-yl)-3-methylpicolinamide] | > 7.00 | > 7.00 |
| Cc1coc(-c2n[nH]c3ccc(NC(=O)c4ncc(C#N)c(C)c4C)cc23)n1 [Example 197, 5-Cyano-3,4-dimethyl-N-(3-(4-methyloxazol-2-yl)-1H-indazol-5-yl)picolinamide] | 6.00 to 7.00 | > 7.00 |
